Test results from ChEMBL document CHEMBL1201862, “PubChem BioAssay data set” (2004).
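The compound was tested at five concentrations on cells cultured in 96-well plates, with a 48-hour exposure period. The concentration for 50% growth inhibition is given as GI50.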 Calls of active or inactive are those of the source. Cut-off read from the data, not from the text of the source: active = GI50 up to about 1.1 µM and inactive = higher.

Columns and labels:
Test in all cases: NCI-60 cell line screen, 48 h
U-251 = system: U-251
UACC-257 = system: UACC-257
MDA-MB-435 = system: MDA-MB-435
A498 = system: A498
SK-MEL-2 = system: SK-MEL-2
HT-29 = system: HT-29
OVCAR-5 = system: OVCAR-5
SW-620 = system: SW-620
MCF7 = system: MCF7
MDA-MB-231 = system: MDA-MB-231
OVCAR-8 = system: OVCAR-8
PC-3 = system: PC-3
786-0 = system: 786-0
MDA-N = system: MDA-N
UACC-62 = system: UACC-62
NCI-H23 = system: NCI-H23
NCI-H460 = system: NCI-H460
NCI/ADR-RES = system: NCI/ADR-RES
NCI-H522 = system: NCI-H522
SF-539 = system: SF-539

SMILES | GI50 (U-251) | GI50 (UACC-257) | GI50 (MDA-MB-435) | GI50 (A498) | GI50 (SK-MEL-2) | GI50 (HT-29) | GI50 (OVCAR-5) | GI50 (SW-620) | GI50 (MCF7) | GI50 (MDA-MB-231) | GI50 (OVCAR-8) | GI50 (PC-3) | GI50 (786-0) | GI50 (MDA-N) | GI50 (UACC-62) | GI50 (NCI-H23) | GI50 (NCI-H460) | GI50 (NCI/ADR-RES) | GI50 (NCI-H522) | GI50 (SF-539)
CC(C)=CCC[C@@H](C)C1=C(O)C(=O)C(C)=C(Nc2ccccc2F)C1=O | 9.33 µM (inactive) | 21.9 µM (inactive) | 36.7 µM (inactive) | 16.6 µM (inactive) | 18.7 µM (inactive) | 33.3 µM (inactive) | 60.4 µM (inactive) | 23.8 µM (inactive) | 24.8 µM (inactive) | 28.4 µM (inactive) | 7.19 µM (inactive) | 12.3 µM (inactive) | 21.3 µM (inactive) | 23.1 µM (inactive) | 12.1 µM (inactive) | 12.7 µM (inactive) | 12 µM (inactive) | 3.49 µM (inactive) |  | 
C=C(C)C(=O)O[C@@H]1C/C(C)=C\[C@H](OC(C)=O)C[C@](C)(O)/C=C2/OC(=O)C(COC(C)=O)=C21 | 1.09 µM (active) | 1.69 µM (inactive) | 0.845 µM (active) | 3.34 µM (inactive) | 2.87 µM (inactive) | 0.237 µM (active) | 1.99 µM (inactive) | 0.216 µM (active) | 1.05 µM (active) | 0.662 µM (active) | 0.69 µM (active) | 1.61 µM (inactive) | 1.09 µM (active) | 0.467 µM (active) | 0.692 µM (active) | 1.77 µM (inactive) | 0.695 µM (active) |  | 0.196 µM (active) | 1.28 µM (inactive)
Cc1cc(-c2ccc(C(=O)O)[nH]2)on1 | 65.6 µM (inactive) | > 100 µM (inactive) | 6.98 µM (inactive) | > 100 µM (inactive) | 88.5 µM (inactive) | 27.1 µM (inactive) | 74.1 µM (inactive) | 30.1 µM (inactive) | 39 µM (inactive) | > 100 µM (inactive) | 61.4 µM (inactive) | 68.5 µM (inactive) | 51.4 µM (inactive) | 4.91 µM (inactive) | 48 µM (inactive) | 69 µM (inactive) | 40.6 µM (inactive) | 24.9 µM (inactive) | 29 µM (inactive) | 
CC1=NC(=Cc2ccccc2O)C(=O)N1n1c(-c2ccccc2)nc2ccccc2c1=O | 38.4 µM (inactive) | 41.9 µM (inactive) | 46.9 µM (inactive) | 62.8 µM (inactive) |  | 32.4 µM (inactive) | 40.5 µM (inactive) | 49.1 µM (inactive) | 25.6 µM (inactive) | 33.2 µM (inactive) | 33.7 µM (inactive) | 30.3 µM (inactive) | 45.5 µM (inactive) | 41.3 µM (inactive) | 14.3 µM (inactive) | 32.8 µM (inactive) | 30.3 µM (inactive) | 33.3 µM (inactive) | 62.8 µM (inactive) | 26.7 µM (inactive)
CC(=O)CCC[C@H](C)[C@@H](O)[C@@H]1O[C@H]([C@@]2(C)CCC(=O)O2)C[C@H]1C(=O)O | > 100 µM (inactive) | > 100 µM (inactive) | > 100 µM (inactive) |  | > 100 µM (inactive) | > 100 µM (inactive) | > 100 µM (inactive) | > 100 µM (inactive) | > 100 µM (inactive) | > 100 µM (inactive) | > 100 µM (inactive) | > 100 µM (inactive) | > 100 µM (inactive) | > 100 µM (inactive) | > 100 µM (inactive) | > 100 µM (inactive) | > 100 µM (inactive) | > 100 µM (inactive) | > 100 µM (inactive) | > 100 µM (inactive)
Cc1ccc(C2=Nc3c(N)nc(N)nc3NC(c3ccccc3)C2)cc1 (centres undefined) | 12.8 µM (inactive) | 13.5 µM (inactive) | 1.92 µM (inactive) |  |  | 4.05 µM (inactive) | 18 µM (inactive) | 4.02 µM (inactive) | 8.77 µM (inactive) | 11.8 µM (inactive) | 13.1 µM (inactive) | 10.4 µM (inactive) | 13.2 µM (inactive) | 2.12 µM (inactive) | 8.15 µM (inactive) | 11.1 µM (inactive) |  | 3.97 µM (inactive) | 3.13 µM (inactive) | 12 µM (inactive)
CCc1nnc(-n2c(C)nc3cc(Cl)ccc3c2=O)s1 | 42.7 µM (inactive) | 39.4 µM (inactive) | 35 µM (inactive) | 39.9 µM (inactive) |  | 35.2 µM (inactive) | > 100 µM (inactive) | 34.8 µM (inactive) | 31.9 µM (inactive) | 83 µM (inactive) | 51.4 µM (inactive) | 52.8 µM (inactive) | 26.5 µM (inactive) | 13.3 µM (inactive) | 22.1 µM (inactive) | 31.6 µM (inactive) | 40.5 µM (inactive) | 39.6 µM (inactive) | 20.5 µM (inactive) | 
O=C(Nc1nc(C23CC4CC(CC(C4)C2)C3)cs1)c1cc2ccc(O)cc2oc1=O | 12.8 µM (inactive) | 15.6 µM (inactive) | 8.38 µM (inactive) | 10.7 µM (inactive) |  | 14.4 µM (inactive) | 21 µM (inactive) | 10.3 µM (inactive) | 14.1 µM (inactive) | 6.04 µM (inactive) | 6.67 µM (inactive) | 13.5 µM (inactive) | 11.6 µM (inactive) | 14 µM (inactive) |  | 11.7 µM (inactive) | 6.5 µM (inactive) | 11.1 µM (inactive) | 10.2 µM (inactive) | 17.1 µM (inactive)
CC(=O)OC(CCC1(C)OC1COc1ccc(CCNC(=O)C=C(C)C)cc1)C(C)(C)OC(C)=O (centres undefined) | > 100 µM (inactive) | 0.449 µM (active) | 16.2 µM (inactive) | > 100 µM (inactive) | > 51.9 µM (inactive) | 46 µM (inactive) | > 100 µM (inactive) | > 100 µM (inactive) |  | > 100 µM (inactive) | 22.9 µM (inactive) | 29.9 µM (inactive) | > 100 µM (inactive) | 13.3 µM (inactive) | 18.4 µM (inactive) | 0.647 µM (active) | 25.6 µM (inactive) | 10.6 µM (inactive) | 19.5 µM (inactive) | > 100 µM (inactive)
O=C1CSSCC(=O)Nc2ccccc2N1 | > 100 µM (inactive) | > 100 µM (inactive) | > 100 µM (inactive) | > 100 µM (inactive) | > 100 µM (inactive) | > 100 µM (inactive) | > 100 µM (inactive) | > 100 µM (inactive) |  | > 100 µM (inactive) | > 100 µM (inactive) | > 100 µM (inactive) | > 100 µM (inactive) | > 100 µM (inactive) | > 100 µM (inactive) | > 100 µM (inactive) | > 100 µM (inactive) | > 100 µM (inactive) | > 100 µM (inactive) | > 100 µM (inactive)
CCOC(=O)C1(C(=O)OCC)COS(=O)OC1 | > 100 µM (inactive) | > 100 µM (inactive) | 36.7 µM (inactive) | > 100 µM (inactive) |  | > 100 µM (inactive) |  | 18.6 µM (inactive) | 19.1 µM (inactive) | 16.9 µM (inactive) | 45.1 µM (inactive) | > 100 µM (inactive) |  | 35.5 µM (inactive) |  | 49.7 µM (inactive) | 21.3 µM (inactive) | 40 µM (inactive) | 0.604 µM (active) | 
O=c1[nH]c2ccccc2c(=O)n1/N=C\c1ccccc1O | > 100 µM (inactive) | > 100 µM (inactive) | > 100 µM (inactive) | > 100 µM (inactive) | > 100 µM (inactive) | > 100 µM (inactive) | > 100 µM (inactive) | > 100 µM (inactive) | > 100 µM (inactive) | > 100 µM (inactive) |  | > 100 µM (inactive) | > 100 µM (inactive) | > 100 µM (inactive) | > 100 µM (inactive) | > 100 µM (inactive) | > 100 µM (inactive) |  |  | > 100 µM (inactive)
NC(CCCCP(=O)(O)O)C(=O)O (centres undefined) | > 100 µM (inactive) | > 100 µM (inactive) | > 100 µM (inactive) |  | > 100 µM (inactive) | > 100 µM (inactive) | > 100 µM (inactive) | > 100 µM (inactive) |  | > 100 µM (inactive) | > 100 µM (inactive) | > 100 µM (inactive) |  | > 100 µM (inactive) | > 100 µM (inactive) | > 100 µM (inactive) | > 100 µM (inactive) | > 100 µM (inactive) | 26.9 µM (inactive) | > 100 µM (inactive)
CC1(C)CCC2=C(O1)c1ccccc1/C(=N/c1ccc([N+](=O)[O-])cc1)C2=O | 14.4 µM (inactive) | 16.5 µM (inactive) |  | 18.7 µM (inactive) | 16.1 µM (inactive) | 12.7 µM (inactive) |  | 16.1 µM (inactive) | 13.2 µM (inactive) | 17.7 µM (inactive) | 14 µM (inactive) | 14 µM (inactive) | 20 µM (inactive) | 14.9 µM (inactive) | 14.7 µM (inactive) |  | 15.5 µM (inactive) | 21.2 µM (inactive) | 13.6 µM (inactive) | 
CC(C)c1cc2c(c(O)c1O)[C@@]1(C(=O)O)CCCC(C)(C)[C@@H]1CC2 [CARNOSIC ACID] | 13.8 µM (inactive) | 14.6 µM (inactive) | 16.3 µM (inactive) |  | 18.9 µM (inactive) | 16.3 µM (inactive) | 20.8 µM (inactive) | 31.8 µM (inactive) | 18.9 µM (inactive) | 31.8 µM (inactive) | 15.3 µM (inactive) | 15.3 µM (inactive) | 31 µM (inactive) | 32.4 µM (inactive) | 13.9 µM (inactive) | 20 µM (inactive) | 19.9 µM (inactive) | 15.6 µM (inactive) | 13 µM (inactive) | 18.7 µM (inactive)
